Values of other authors in patent US20100112033A1, “STENTS COATED WITH NO- AND S-NITROSOTHIOL-ELUTING HYDROPHLIC POLYMERIC BLENDS” (Universidade Estadual de Campinas UNICAMP, priority 2005, published 2010).

Assays:
[1] = test system: platelet aggregation; settings: compared to non-nitrosated polymer
[2] = test system: neointimal formation; settings: compared to non-nitrosated polymer
[3] = test system: stenosis; settings: applied to damaged vascular site, rabbit coronary artery
[4] = test system: neointimal hyperplasia; settings: patients, six months after stenting

| Substance | reduction of platelet aggregation [1] | reduction of neointimal formation [2] | effect on stenosis [3] | neointimal hyperplasia [4] |
| --- | --- | --- | --- | --- |
| bovine S-nitrosated albumin: nitrosated protein, a protein adduct of nitric oxide | 50-70% | 40% | proved to reduce stenosis | – |
| sirulimus | – | – | – | minimal neointimal hyperplasia |
